Results on six compounds are retold here after ChEMBL document CHEMBL6127088, “Novel 2-aminothiazole analogues both as polymyxin E synergist and antimicrobial agent against multidrug-resistant Gram-positive bacteria” (2024).

Converted amounts (≈) assume the structure as drawn. The source made the active and inactive calls. No cut-off for these calls is given here. Where only a bound is given, the exact number is not on record here.

Experiment [1] relates to Staphylococcus aureus. As to the kind of experiment: Antimicrobial activity against methicillin/ofloxacin-resistant Staphylococcus aureus ATCC 43300 assessed as minimum inhibitory concentration incubated for 18 hrs by broth microdilution method. In kind it is functional.
Experiment [2] relates to Acinetobacter baumannii. As to the kind of experiment: Synergistic antibacterial activity against Acinetobacter baumannii ATCC 19606 assessed as fold change in polymyxin-E MIC at 2 microg/ml incubated for 18 hrs by broth microdilution method relative to polymyxin-E alone. In kind it is functional. The following applies: dose 2 µg/ml.
The subject of experiment [3] is Acinetobacter baumannii. As to the kind of experiment: Antibacterial activity against Acinetobacter baumannii ATCC 19606 infected in female Balb/c mouse model assessed as increase in animal survival at 64 mg/kg, iv administered every 12 hrs and measured for 7 days. In kind it is functional, organism-based.
For experiment [4], the system named is Bacillus subtilis. As to the kind of experiment: Antimicrobial activity against Bacillus subtilis ATCC 20678 incubated for 18 hrs by broth microdilution method. The experiment is classed as functional. For orientation: Dilution methods test growth across graded concentrations, often in twofold steps.
The test system of experiment [5] is Acinetobacter baumannii. As to the kind of experiment: Synergistic antimicrobial activity against Acinetobacter baumannii ATCC 19606 assessed as fractional inhibitory concentration index in presence of polymyxin E incubated for 18 to 20 hrs by chequerboard assay. In kind it is functional. The following applies: time 18-20 hrs.
For experiment [6], the system named is Acinetobacter baumannii. As to the kind of experiment: Antimicrobial activity against Acinetobacter baumannii ATCC 19606 incubated for 18 hrs by broth microdilution method. The experiment is classed as functional.
Experiment [7] deals with Enterococcus faecalis. As to the kind of experiment: Antimicrobial activity against vancomycin-resistant Enterococcus faecalis ATCC 51299 assessed as minimum inhibitory concentration incubated for 18 hrs by broth microdilution method. In kind it is functional.
In experiment [8] the test system is Acinetobacter baumannii. As to the kind of experiment: Synergistic antibacterial activity against Acinetobacter baumannii ATCC 19606 infected in female Balb/c mouse model assessed as increase in animal survival at 64 mg/kg, iv administered every 12 hrs in presence of 0.5 mg/kg polymyxin-E and measured for 7 days. The experiment is classed as functional, organism-based.

Experiment [9] deals with Acinetobacter baumannii. As to the kind of experiment: Synergistic antibacterial activity against Acinetobacter baumannii ATCC 19606 assessed as fold change in polymyxin-E MIC at 16 microg/ml incubated for 18 hrs by broth microdilution method relative to polymyxin-E alone. The note with it: dose 16 µg/ml. The experiment is classed as functional.
The test system of experiment [10] is Bacillus subtilis. As to the kind of experiment: Antibacterial activity against Bacillus subtilis 168 assessed as inhibition of bacterial growth incubated for 18 hrs by broth microdilution method. In kind it is functional.
For experiment [11], the system named is Listeria monocytogenes. As to the kind of experiment: Antibacterial activity against Listeria monocytogenes assessed as inhibition of bacterial growth incubated for 18 hrs by broth microdilution method. In kind it is functional.
Experiment [12] deals with Enterococcus faecalis. As to the kind of experiment: Antibacterial activity against Enterococcus faecalis ATCC 51299 assessed as inhibition of bacterial growth incubated for 18 hrs by broth microdilution method. In kind it is functional.
Experiment [13] relates to Lacticaseibacillus rhamnosus. As to the kind of experiment: Antibacterial activity against Lactobacillus rhamnosus assessed as inhibition of bacterial growth incubated for 18 hrs by broth microdilution method. The experiment is classed as functional.
For experiment [14], the system named is Bacillus subtilis. As to the kind of experiment: Antibacterial activity against Bacillus subtilis ATCC 6633 assessed as inhibition of bacterial growth incubated for 18 hrs by broth microdilution method. In kind it is functional.
Experiment [15] concerns Mycolicibacterium smegmatis. As to the kind of experiment: Antibacterial activity against Mycobacterium smegmatis ARC 700044 assessed as inhibition of bacterial growth incubated for 18 hrs by broth microdilution method. The experiment is classed as functional.
For experiment [16], the system named is Bacillus subtilis. As to the kind of experiment: Antibacterial activity against Bacillus subtilis CMCC(B) 63501 assessed as inhibition of bacterial growth incubated for 18 hrs by broth microdilution method. The experiment is classed as functional.
Experiment [17] concerns Lactiplantibacillus plantarum. As to the kind of experiment: Antibacterial activity against Lactobacillus plantarum assessed as inhibition of bacterial growth incubated for 18 hrs by broth microdilution method. In kind it is functional.
Experiment [18] has as its system Mycolicibacterium smegmatis. As to the kind of experiment: Antibacterial activity against Mycobacterium smegmatis ATCC 704 assessed as inhibition of bacterial growth incubated for 18 hrs by broth microdilution method. The experiment is classed as functional.
Experiment [19] has as its system Mycolicibacterium smegmatis. As to the kind of experiment: Antibacterial activity against Mycobacterium smegmatis MC 2155 assessed as inhibition of bacterial growth incubated for 18 hrs by broth microdilution method. In kind it is functional.
Experiment [20] concerns Enterococcus faecalis. As to the kind of experiment: Antibacterial activity against Enterococcus faecalis ATCC 29212 assessed as inhibition of bacterial growth incubated for 18 hrs by broth microdilution method. In kind it is functional.

In the case of `Fc1ccc(-c2csc(Nc3ccc(C(F)(F)F)cc3)n2)c(F)c1`, the minimum inhibitory concentration (MIC) in [1] is 4 µg/mL (≈ 11.2 µM); in [4], 4 µg/mL (≈ 11.2 µM); in experiment [6], above 256 µg/mL; in experiment [7], 4 µg/mL (≈ 11.2 µM). The entries for the “fold change (FC)” value in experiment [2] and in [9] were 8 and 16, respectively. The outcome in experiment [3] and in [8] was inactive. Besides, the “fractional inhibitory concentration index (FICI)” value in experiment [5] is listed as 0.14.

For `CN[C@H](CC(C)C)C(=O)N[C@H]1C(=O)N[C@@H](CC(N)=O)C(=O)N[C@H]2C(=O)N[C@H]3C(=O)N[C@H](C(=O)N[C@H](C(=O)O)c4cc(O)cc(O)c4-c4cc3ccc4O)[C@H](O)c3ccc(c(Cl)c3)Oc3cc2cc(c3O[C@@H]2O[C@H](CO)[C@@H](O)[C@H](O)[C@H]2O[C@H]2C[C@](C)(N)[C@H](O)[C@H](C)O2)Oc2ccc(cc2Cl)[C@H]1O` [VANCOMYCIN], the MIC is 1 µg/mL (≈ 0.69 µM) in experiment [10]; 2 µg/mL (≈ 1.38 µM) in experiment [11]; 2 µg/mL (≈ 1.38 µM) in experiment [12]; 1 µg/mL (≈ 0.69 µM) in [4]; 1 µg/mL (≈ 0.69 µM) in [13]; 1 µg/mL (≈ 0.69 µM) in experiment [14]. In addition, the minimal inhibitory concentration (MIC) in [15] was 2 µg/mL (≈ 1.38 µM); in [16], 2 µg/mL (≈ 1.38 µM); in experiment [17], 0.5 µg/mL (≈ 0.345 µM); in experiment [7], above 256 µg/mL; in [18] it was 1 µg/mL (≈ 0.69 µM); in experiment [19] it was 2 µg/mL (≈ 1.38 µM). Besides, the MIC in experiment [20] stood at 2 µg/mL (≈ 1.38 µM).

With `Fc1ccc(-c2csc(Nc3c(Cl)cc(C(F)(F)F)cc3Cl)n2)c(F)c1`, the MIC in experiment [1] is 256 µg/mL (≈ 602 µM); in [4] it was 256 µg/mL (≈ 602 µM); in experiment [6], above 256 µg/mL; in experiment [7], 256 µg/mL (≈ 602 µM). Moreover, the “fractional inhibitory concentration index (FICI)” value in [5] was 1.031.

As to `COc1cc(Nc2nc(-c3ccc(F)cc3F)cs2)cc(C(F)(F)F)c1`, the MIC was 256 µg/mL (≈ 663 µM) in [1], 2 µg/mL (≈ 5.18 µM) in experiment [4], above 128 µg/mL in [6] and 256 µg/mL (≈ 663 µM) in [7]. Besides, the “fractional inhibitory concentration index (FICI)” value in experiment [5] is on record as 0.187.

With `Fc1ccc(-c2csc(Nc3cccc(C(F)(F)F)c3)n2)c(F)c1`, the MIC is 4 µg/mL (≈ 11.2 µM) in experiment [1], 2 µg/mL (≈ 5.61 µM) in experiment [4], above 256 µg/mL in [6] and 2 µg/mL (≈ 5.61 µM) in [7]. For the same compound, the “fractional inhibitory concentration index (FICI)” value in experiment [5] worked out at 0.094.

As for `COc1ccc(Nc2nc(-c3ccc(F)cc3F)cs2)cc1C(F)(F)F`, the minimum inhibitory concentration (MIC) in experiment [1] is 8 µg/mL (≈ 20.7 µM); in [4], 4 µg/mL (≈ 10.4 µM); in [6] it was above 256 µg/mL; in [7], 8 µg/mL (≈ 20.7 µM). Besides, the “fractional inhibitory concentration index (FICI)” value in [5] is on record as 0.094.

The MIC is the lowest concentration found to suppress growth.
